The values that follow come from US10791730B2, “Composition and methods for cryopreservation of hUTC” (DePuy Synthes Products, Inc., priority 2016, dated 2020).

This experiment deals with umbilical cord tissue. In words: Isolation of cells from umbilical cord tissue using varying enzyme combinations. In kind it is cell-based, human. On the set-up: key: + = good; ++ = very good; +++ = excellent; X = no success. To be noted: enzyme digest of umbilical cord tissue. On the procedure:
Umbilical cords were obtained from National Disease Research Interchange (NDRI, Philadelphia, Pa.). The tissues were obtained following normal deliveries. The cell isolation protocols were performed aseptically in a laminar flow hood. To remove blood and debris, the cord was washed in phosphate buffered saline (PBS; Invitrogen, Carlsbad, Calif.) in the presence of penicillin at 100 U/ml, streptomycin at […] and amphotericin B at 0.25 μg/ml (Invitrogen Carlsbad, Calif.). The tissues were then mechanically dissociated in 150 cm^2 tissue culture plates in the presence of 50 ml of medium (DMEM-low glucose or DMEM-high glucose; Invitrogen) until the tissue was minced into a fine pulp. The chopped tissues were transferred to 50 ml conical tubes (approximately 5 g of tissue per tube).
The tissue was then digested in either DMEM-low glucose medium or DMEM-high glucose medium, each containing penicillin at 100 U/ml, streptomycin at […], amphotericin B at 0.25 μg/ml and the digestion enzymes. In some experiments an enzyme mixture of collagenase and dispase was used (“C:D”) (collagenase (Sigma, St Louis, Mo.), 500 U/ml; and dispase (Invitrogen), 50 U/ml, in DMEM-Low glucose medium). In other experiments a mixture of collagenase, dispase and hyaluronidase (“C:D:H”) was used (C:D:H=collagenase, 500 U/ml; dispase, 50 U/ml; and hyaluronidase (Sigma), 5 U/ml, in DMEM-Low glucose). The conical tubes containing the tissue, medium and digestion enzymes were incubated at 37° C. in an orbital shaker (Environ, Brooklyn, N.Y.) at 225 rpm for 2 hours.
After digestion, the tissues were centrifuged at 150×g for 5 minutes, the supernatant was aspirated. The pellet was resuspended in 20 ml of growth medium (DMEM:Low glucose (Invitrogen), 15% (v/v) fetal bovine serum (FBS; defined fetal bovine serum; Lot #AND18475; Hyclone, Logan, Utah), 0.001% (v/v) 2-mercaptoethanol (Sigma), penicillin at 100 U/ml, streptomycin at 100 μg/ml, and amphotericin B at 0.25 μg/ml (each from Invitrogen, Carlsbad, Calif.)). The cell suspension was filtered through a 70 μm nylon BD FALCON Cell Strainer (BD Biosciences, San Jose, Calif.). An additional 5 ml rinse comprising growth medium was passed through the strainer. The cell suspension was then passed through a 40-μm nylon cell strainer (BD Biosciences, San Jose, Calif.) and chased with a rinse of an additional 5 ml of growth medium.
The filtrate was resuspended in growth medium (total volume 50 ml) and centrifuged at 150×g for 5 minutes. The supernatant was aspirated and the cells were resuspended in 50 ml of fresh growth medium. […]
After the final centrifugation, supernatant was aspirated and the cell pellet was resuspended in 5 ml of fresh growth medium. The number of viable cells was determined using trypan blue staining. […]

As for Collagenase, the “Cell Expansion” value is on record as “X” and the “Cells Isolated” value is given as “X”.

Take Hyaluronidase: the “Cell Expansion” value was “X” and the “Cells Isolated” value was “X”.
